Test results taken from patent US9669003B2, “Use of flavone and flavanone derivatives in preparation of sedative and hypnotic drugs” (priority 2012, dated 2017).
Marks after values point to notes of the source that are not given here.

Assays:
Format in all cases: in vivo
Kunming mice [1] = assay: Influence on autonomic activity of normal mice (ZIL-2 mice autonomic activity meter, counts within 10 min); conditions: intragastric, x ± s, n = 10; for Times of activities in 1 h after drug administration/10 min: 1 h after administration; for Times of activities in 2 h after drug administration/10 min: 2 h after administration; for Times of activities in 24 h after drug administration/10 min: 24 h after administration
In short: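 Kunming mice (10 per group, half each sex) were dosed at 25, 50 or 100 mg/kg in 0.5% CMC-Na. Spontaneous activity counts over 10 min were recorded at 1 h, 2 h and 24 h post-dose. Groups were compared by ANOVA with Dunnett's test after Levene's check.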

Kunming mice [2] = assay: Influence on hypnosis effect with pentobarbital sodium doses below the threshold (25 mg/kg i.p.); conditions: pentobarbital sodium 25 mg/kg i.p. 60 min later, sleep observed in 30 min, n = 10
In short: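 Kunming mice (10 per group, half female) given single oral doses of 25, 50 or 100 mg/kg in 0.5% CMC-Na; 60 min later pentobarbital sodium 25 mg/kg i.p. Sleep (righting reflex lost >1 min) scored within 30 min as percentage asleep, χ2 test.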

Kunming mice [3] = assay: Influence on hypnosis effect with pentobarbital sodium doses at the threshold (50 mg/kg i.p.); conditions: pentobarbital sodium 50 mg/kg i.p. 60 min later, x ± s, n = 10
In short: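 Kunming mice (10/group, half each sex) received compound in 0.5% CMC-Na intragastrically at 25, 50 or 100 mg/kg; 60 min later given 0.3% sodium pentobarbital 50 mg/kg i.p. Sleep latency and duration recorded by loss of righting reflex over 1 min; ANOVA and χ2 for sleep incidence.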

[4] = test drug 25 mg/kg intragastric single dose
[5] = test drug 50 mg/kg intragastric single dose
[6] = test drug 100 mg/kg intragastric single dose
[7] = 25 mg/kg intragastric single dose
[8] = 50 mg/kg intragastric single dose
[9] = 100 mg/kg intragastric single dose

| Compound | Times of activities in 1 h after drug administration/10 min (Kunming mice [1]; 25 mg/kg) | Times of activities in 2 h after drug administration/10 min (Kunming mice [1]; 25 mg/kg) | Times of activities in 24 h after drug administration/10 min (Kunming mice [1]; 25 mg/kg) | Times of activities in 1 h after drug administration/10 min (Kunming mice [1]; 50 mg/kg) | Times of activities in 2 h after drug administration/10 min (Kunming mice [1]; 50 mg/kg) | Times of activities in 24 h after drug administration/10 min (Kunming mice [1]; 50 mg/kg) | Times of activities in 1 h after drug administration/10 min (Kunming mice [1]; 100 mg/kg) | Times of activities in 2 h after drug administration/10 min (Kunming mice [1]; 100 mg/kg) | Times of activities in 24 h after drug administration/10 min (Kunming mice [1]; 100 mg/kg) | Number of sleeping animals (Kunming mice [2]; [4]) | rate of sleeping (%) (Kunming mice [2]; [4]) | Number of sleeping animals (Kunming mice [2]; [5]) | rate of sleeping (%) (Kunming mice [2]; [5]) | Number of sleeping animals (Kunming mice [2]; [6]) | rate of sleeping (%) (Kunming mice [2]; [6]) | duration of sleep (Kunming mice [3]; [7]) [min] | time to sleep (Kunming mice [3]; [7]) [min] | duration of sleep (Kunming mice [3]; [8]) [min] | time to sleep (Kunming mice [3]; [8]) [min] | duration of sleep (Kunming mice [3]; [9]) [min] | other results |
| --- | --- | --- | --- | --- | --- | --- | --- | --- | --- | --- | --- | --- | --- | --- | --- | --- | --- | --- | --- | --- | --- |
| COc1ccc(C2CC(=O)c3c(OC)cc(OC)c(OC)c3O2)cc1OC (stereo not drawn) [Example 44, 5,7,8,3′,4′-penta methoxyl-flavanone] | 220.8 ± 54.6 /10 min | 228.7 ± 43.3 /10 min | 311.6 ± 60.1 /10 min | 143.4 ± 41.3 /10 min | 133.5 ± 38.3 /10 min | 315.1 ± 85.5 /10 min | 103.4 ± 43.5 /10 min | 101.7 ± 45.1 /10 min | 303.8 ± 81.2 /10 min | 6 | 60** % | 7 | 70** % | 9 | 90*** % | 58.25 ± 15.16 | 4.43 ± 1.55 | 76.74 ± 25.45 | 3.46 ± 1.23 | 89.39 ± 23.44 | time to sleep (Kunming mice [3]; [9]): 3.05 ± 1.57 min |
| COc1ccc(C2CC(=O)c3cc(OC)c(OC)c(OC)c3O2)cc1OC (stereo not drawn) [Example 45, 6,7,8,3′,4′-penta methoxyl-flavanone] | 235.6 ± 44.5 /10 min | 223.2 ± 41.4 /10 min | 299.2 ± 61.3 /10 min | 136.6 ± 40.5 /10 min | 123.3 ± 47.6 /10 min | 291.5 ± 60.4 /10 min | 112.5 ± 35.4 /10 min | 105.6 ± 48.5 /10 min | 288.8 ± 69.5 /10 min | 5 | 50** % | 6 | 60** % | 10 | 100*** % | 59.67 ± 19.87 | 4.19 ± 1.78 | 66.42 ± 28.90 | 3.26 ± 1.24 | 90.03 ± 23.72 | time to sleep (Kunming mice [3]; [9]): 2.17 ± 1.14 min |
